Measured values as given in publication PMC10609081, “In Vivo Trafficking of the Anticancer Drug Tris(8-Quinolinolato) Gallium (III) (KP46) by Gallium-68/67 PET/SPECT Imaging” (Molecules, 2023).

Experiments:
[1] = Distribution/partition coefficients (logD, logP), shake flask with gamma counting; type: physicochemical; conditions: tracer level, mean ± SD
Protocol: Tracer-level [^68Ga]KP46 and [^68Ga]Ga-acetate solutions (5–20 µL, 0.3–0.5 MBq) were added to a pre-equilibrated mixture (500 µL/500 µL) of octanol/water (for logP measurement) or octanol/PBS (for logD7.4 measurement). Samples were vortexed for two minutes in a Multi Vortex Mixer V-32 (Grant Bio). From each layer, a sample of 200 µL was taken and its radioactivity measured using a gamma counter.

[2] = Ex vivo biodistribution 2 h after intravenous injection, nu/nu mice bearing A375 xenografts; type: in vivo; conditions: i.v., tracer level
Protocol: Figure S8. Ex vivo biodistribution of [ Ga]KP46 (tracer level) in nu/nu mice bearing A375 xenografts at two hours post i.v. injection via tail vein. […] Values are […]
expressed as mean ± SD (n = 3). (See below for methods)
Methodology for ex vivo biodistribution 2 h after intravenous injection of [68Ga]KP46 Mice were intravenously injected with tracer level [68Ga]KP46 and culled two hours post injection for organ harvesting and gamma counting. Consistent with the data shown in the main manuscript for 4 […]
[68Ga]KP46. Activity was also observed in the kidneys (30%ID/g for both kidneys) and urine, indicating excretion through urinary system. Significant activity was also seen in the lungs, heart, and small intestine (14.3 ± 0.6, 12.6 ± 1.7 and 12 ± 2.6 %ID/g, respectively), with minimal activity accumulating in the tumour (3.4 ± 0.4%ID/g) (Figure S8). […]

[3] = PET imaging and ex vivo biodistribution 4 h after oral administration of [68Ga]KP46, tracer (group C) and bulk (group D); type: in vivo, mice; conditions: n = 3
Protocol: The tracer-level samples for oral administration were prepared in the same manner but with 20 μL of KP46-free DMSO in place of the KP46 solution in DMSO.
All animal experiments were performed in accordance with the Animals (Scientific Procedures) Act, 1986, with protocols approved by the Animal Welfare and Ethical Review Body for King’s College London under project and personal licences approved by the UK Home Office. Tumour xenograft studies were performed on female NSG mice or female athymic nude mice after injecting them subcutaneously in the right shoulder with 2.5 × 10^6 A375 cells in 100 µL of PBS. All in vivo studies were conducted between 14 and 24 days after inoculation, with tumour volumes between 100 mm^3 and 580 mm^3 (see Supplementary Materials, Figure S11).
(§1) Oral [^68/67Ga]KP46: The protocol for oral administration experiments reported here was devised on the basis of pilot experiments described in Supplementary Materials (Figure S12). For short-term (up to 4 h) studies with ^68Ga, awake (nonanaesthetised, to avoid suppressive effects of anaesthesia on digestive tract activity) mice that had been fasted for up to 14 h were given [^68Ga]KP46 (5–13 MBq) (group C, “tracer”, n = 3) or [^68Ga]KP46 and KP46 (5–8.5 MBq) (group D, “bulk”, n = 3) by oral gavage. The dose given orally to group D animals, prepared as described above, was 0.4 μmol in 400 μL, molar activity ca. 25 MBq/μmol. The mice were fasted for three hours before being anaesthetised and PET/CT scanned dynamically for one hour (see below for scanning protocol). After scanning, mice in both groups were culled by neck dislocation while still anaesthetised four hours post-oral administration for organ harvesting and gamma counting. Samples of blood, urine and contents of stomach, small intestine and large intestine (the organs/tissue with measurable activity; tumours were not included as they were insufficiently radioactive) from the mice in group C were used for octanol extraction (shake-flask method) to separate water-soluble (released) and lipid-soluble (intact KP46) ^68Ga. Serum samples were prepared by placing blood samples in a serum separator tube (brand VS367954, Fisher Scientific Ltd., Loughborough, UK) and centrifuging at 3000 rpm for 10 min. Serum (200–300 µL) and urine samples (150–180 µL, taken from the excised bladders) were directly added to Eppendorf tubes containing a pre-equilibrated mixture of octanol (500 µL) and water (500 µL). The tubes were vortexed for two minutes on a Multi Vortex Mixer V-32 (Grant Bio). After separation of layers, a sample of 400 µL from each layer was transferred to fresh Eppendorf tubes and analysed with a gamma counter. Stomach content (72–77 mg), small intestine content (35–88 mg), and large intestine content (86–100 mg) samples from each mouse were analysed similarly by adding them directly to Eppendorf tubes containing a pre-equilibrated mixture of octanol (500 µL) and water (500 µL) before vortexing and centrifuging at 10,000 rpm for 10 min at 4 °C. From each layer, 430 µL was transferred to fresh Eppendorf tubes and analysed with a gamma counter; the solid residues were also counted. Tissues from mice in group D were used after radioactive decay for measurements of nonradioactive ^69Ga content.
PET/CT images were acquired with a nanoScan® PET/CT (Mediso Medical Imaging Systems, Budapest, Hungary) scanner operating in list mode using a 400–600 keV energy window and a coincidence window of 1:3. CT scans were acquired for anatomical reference and attenuation correction (55 keV X-ray, exposure time 1000 ms, and 360 projections and pitch 1). PET projection data were reconstructed using the Tera-tomo® software package provided with the scanner —a Monte Carlo-based fully 3D iterative algorithm with four iterations, six subsets, and 0.4 mm isotropic voxel size; corrections for attenuation, scatter, and dead-time were enabled. […]

[4] = Octanol extraction of serum, urine and gut contents after oral radiolabelled KP46 (speciation); type: in vivo, mice; conditions: 4 h
Protocol: Serum and urine from the “tracer level” group (E) were subjected to octanol extraction 24 h postadministration to determine the fraction of ^67Ga that may have survived in the form of [^67Ga]KP46 after absorption from the gut.
as §1

[5] = after removal of solids, octanol extraction, group C
[6] = not extracted into octanol or water, oral tracer (group C)
[7] = octanol extraction, oral tracer (group C)

[68Ga+3].[O-]c1cccc2cccnc12.[O-]c1cccc2cccnc12.[O-]c1cccc2cccnc12 [[^68Ga]KP46]
logD(octanol/PBS) ([1]; octanol/PBS): 1.90 ± 0.19
logP(octanol/water) ([1]; octanol/water): 2.33 ± 0.28
activity in kidneys, ex vivo ([2]; both kidneys): 30 %ID/g
activity in heart, ex vivo ([2]; n = 3): 12.6 ± 1.7 %ID/g
activity in liver, ex vivo ([2]; n = 3): 31.4 ± 3.8 %ID/g
activity in lungs, ex vivo ([2]; n = 3): 14.3 ± 0.6 %ID/g
activity in small intestine, ex vivo ([2]; n = 3): 12 ± 2.6 %ID/g
activity in tumour, ex vivo ([2]; n = 3): 3.4 ± 0.4 %ID/g
68Ga activity delivered to tumour ([3]; bulk (group D)): 0.5 ± 0.3 %ID/g
68Ga activity in small intestine ([3]; bulk (group D)): 18.4 ± 5 %ID/g
68Ga activity in stomach ([3]; bulk (group D)): 11.9 ± 8.1 %ID/g
68Ga activity in large intestine ([3]; bulk (group D, combined with KP46 0.4 μmol)): 56.5 ± 21.4 %ID/g
uptake in large intestine, ex vivo ([3]; tracer level (group C)): 61.7 ± 21.5 %ID/g
uptake in small intestine, ex vivo ([3]; tracer level (group C)): 12.8 ± 4.1 %ID/g
soluble radioactivity in aqueous phase, large intestine [4, 5]: 95.5% ± 4.2%
soluble radioactivity in aqueous phase, small intestine [4, 5]: 95% ± 2.5%
soluble radioactivity in aqueous phase, stomach [4, 5]: 76.8% ± 8.7%
activity present in solids, large intestine contents [4, 6]: 83.7% ± 8.8%
activity present in solids, small intestine contents [4, 6]: 80.7% ± 19.4%
activity present in solids, stomach contents [4, 6]: 82.9% ± 10.7%
68Ga in aqueous phase, serum [4, 7]: 98.6% ± 1.5%
68Ga in aqueous phase, urine [4, 7]: 98.2% ± 1.7%
